Reference: patent US20230089867A1, “CYCLIC PENTAMER COMPOUNDS AS PROPROTEIN CONVERTASE SUBTILISIN/KEXIN TYPE 9 (PCSK9) INHIBITORS FOR THE TREATMENT OF METABOLIC DISORDER” (Novartis AG, priority 2018, published 2023)

Target: human PCSK9 (Homo sapiens, UniProt Q8NBP7)
Experiment: PCSK9 ligand binding TR-FRET assay (interference with binding of human PCSK9 to human LDLR)
Conditions: for Max % inhibition: PCSK9 FRET assay, efficacy (Amax), 100% = 1 uM unlabeled human PCSK9, 0% = DMSO; for IC50: TR-FRET, human PCSK9 Alexa Fluor 647 / human LDLR extracellular domain-Europium Kryptate, read-out: PCSK9 FRET Assay IC50
In short: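 Threefold compound dilutions were pre-incubated 30 min with PCSK9, after which 4 nM Europium Kryptate-tagged human LDLR ectodomain was added for a further 2 h.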

human PCSK9, sequence (Q8NBP7 153-692): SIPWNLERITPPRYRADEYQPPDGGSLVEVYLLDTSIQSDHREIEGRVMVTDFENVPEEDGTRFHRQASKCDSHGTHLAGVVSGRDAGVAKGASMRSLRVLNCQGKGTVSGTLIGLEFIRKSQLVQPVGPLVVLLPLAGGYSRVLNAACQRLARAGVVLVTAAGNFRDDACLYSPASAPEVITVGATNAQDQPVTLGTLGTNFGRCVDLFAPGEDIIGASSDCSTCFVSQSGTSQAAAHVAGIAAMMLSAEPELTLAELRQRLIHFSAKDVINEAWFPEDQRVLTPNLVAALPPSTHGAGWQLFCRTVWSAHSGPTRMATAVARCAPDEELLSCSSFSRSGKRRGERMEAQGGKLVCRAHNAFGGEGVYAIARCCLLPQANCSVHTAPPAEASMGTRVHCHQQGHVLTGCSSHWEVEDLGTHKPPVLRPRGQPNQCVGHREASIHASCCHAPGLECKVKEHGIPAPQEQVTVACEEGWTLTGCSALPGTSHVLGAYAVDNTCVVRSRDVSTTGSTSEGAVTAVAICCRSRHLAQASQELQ
human PCSK9, sequence (Q8NBP7 31-152 partner limits assumed): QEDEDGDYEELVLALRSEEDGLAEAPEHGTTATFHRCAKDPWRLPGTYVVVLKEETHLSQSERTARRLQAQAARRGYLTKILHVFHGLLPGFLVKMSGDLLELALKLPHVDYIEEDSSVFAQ

Compound	Max % inhibition [%]	IC50 [nM]
COC[C@@H]1NC(=O)C(C)N(Cc2ccc(F)cc2Oc2ccc(-c3cnc(CN(C)C)n3C)cc2)C(=O)C[C@@H](Cc2ccccc2)C(=O)N(C)[C@H]2CCCC[C@@H]2NC(=O)C[C@H](Cc2ccc(Cl)cc2)N(C)C1=O (stereo partly drawn) [Compound 228, (4S,7S,14R,16aS,20aS)-14-benzyl-4-(4-chlorobenzyl)-11-(2-(4-(2-((dimethylamino)methyl)-1-methyl-1H-imidazol-5-yl)phenoxy)-4-fluorobenzyl)-7-(methoxymethyl)-5,10,16-trimethylhexadecahydrobenzo[l][1,4,7,11,14]pentaazacyclooctadecine-2,6,9,12,15(3H)-pentaone]	93.92	8.4
COC[C@@H]1NC(=O)[C@H](C)N(Cc2c(Cl)cccc2Oc2ccc(-c3cnc(CN(C)C)n3C)cc2)C(=O)C[C@@H](C)C(=O)N(C)[C@@H](C)CNC(=O)C[C@H](Cc2ccc(Cl)cc2)N(C)C1=O [Compound 230, (2S,5S,8S,13S,16R)-1-(2-chloro-6-(4-(2-((dimethylamino)methyl)-1-methyl-1H-imidazol-5-yl)phenoxy)benzyl)-8-(4-chlorobenzyl)-5-(methoxymethyl)-2,7,13,14,16-pentamethyl-1,4,7,11,14-pentaazacyclooctadecane-3,6,10,15,18-pentaone]	46.03	77.8
COC[C@@H]1NC(=O)[C@H](C)N(Cc2cccc(F)c2Oc2ccc(-c3cnc(CN(C)C)n3C)cc2)C(=O)C[C@@H](Cc2ccccc2)C(=O)N(C)[C@@H](C)CNC(=O)C[C@H](Cc2ccc(Cl)cc2)N(C)C1=O [Compound 232, (2S,5S,8S,13S,16R)-16-benzyl-8-(4-chlorobenzyl)-1-(2-(4-(2-((dimethylamino)methyl)-1-methyl-1H-imidazol-5-yl)phenoxy)-3-fluorobenzyl)-5-(methoxymethyl)-2,7,13,14-tetramethyl-1,4,7,11,14-pentaazacyclooctadecane-3,6,10,15,18-pentaone]	96.17	5.7
C[C@H]1CNC(=O)C[C@H](Cc2ccc(Cl)cc2)N(C)C(=O)[C@H](CCC(=O)O)NC(=O)[C@H](C)N(Cc2ccc(Cl)cc2Oc2ccc(-c3cnc(CN(C)C)n3C)cc2)C(=O)C[C@@H](Cc2ccccc2)C(=O)N1C [Compound 233, 3-((2S,5S,8S,13S,16R)-16-benzyl-1-(4-chloro-2-(4-(2-((dimethylamino)methyl)-1-methyl-1H-imidazol-5-yl)phenoxy)benzyl)-8-(4-chlorobenzyl)-2,7,13,14-tetramethyl-3,6,10,15,18-pentaoxo-1,4,7,11,14-pentaazacyclooctadecan-5-yl)propanoic acid]	90.08	705
COC[C@@H]1NC(=O)[C@H](C)N(Cc2ccc(Cl)cc2Oc2ccc(-c3cnc(CN(C)C)n3C)cc2)C(=O)C[C@@H](Cc2ccccc2)C(=O)N(C)[C@@H](CO)CNC(=O)C[C@H](Cc2ccc(Cl)cc2)N(C)C1=O [Compound 235, (2S,5S,8S,13R,16R)-16-benzyl-1-(4-chloro-2-(4-(2-((dimethylamino)methyl)-1-methyl-1H-imidazol-5-yl)phenoxy)benzyl)-8-(4-chlorobenzyl)-13-(hydroxymethyl)-5-(methoxymethyl)-2,7,14-trimethyl-1,4,7,11,14-pentaazacyclooctadecane-3,6,10,15,18-pentaone]	100.56	11.1
COC[C@@H]1NC(=O)[C@H](C)N(Cc2c(F)cc(F)cc2Oc2ccc(-c3cnc(CN(C)C)n3C)cc2)C(=O)C[C@@H](Cc2ccccc2)C(=O)N(C)[C@@H](C)CNC(=O)C[C@H](Cc2ccc(Cl)cc2)N(C)C1=O [Compound 236, (2S,5S,8S,13S,16R)-16-benzyl-8-(4-chlorobenzyl)-1-(2-(4-(2-((dimethylamino)methyl)-1-methyl-1H-imidazol-5-yl)phenoxy)-4,6-difluorobenzyl)-5-(methoxymethyl)-2,7,13,14-tetramethyl-1,4,7,11,14-pentaazacyclooctadecane-3,6,10,15,18-pentaone]	95.33	6.6
COC[C@@H]1NC(=O)[C@H](C)N(Cc2ccc(Cl)cc2Oc2ccc(-c3cnc([C@H](C)N(C)C)n3C)cc2)C(=O)C[C@@H](Cc2ccccc2)C(=O)N(C)[C@H]2CCCC[C@@H]2NC(=O)C[C@H](Cc2ccc(Cl)cc2)N(C)C1=O [Compound 241, (4S,7S,10S,14R,16aS,20aS)-14-benzyl-11-(4-chloro-2-(4-(2-((S)-1-(dimethylamino)ethyl)-1-methyl-1H-imidazol-5-yl)phenoxy)benzyl)-4-(4-chlorobenzyl)-7-(methoxymethyl)-5,10,16-trimethylhexadecahydrobenzo[l][1,4,7,11,14]pentaazacyclooctadecine-2,6,9,12,15(3H)-pentaone]	72.66	247

Now those with a lower IC50, led by results:

Max % inhibition [%]	IC50 [nM]	Compound
99.91	0.6	COC[C@@H]1NC(=O)[C@H](C)N(Cc2ccc(Cl)cc2Oc2ccc(-c3cnc(CN4CCCC4)n3C)cc2)C(=O)C[C@@H](Cc2ccccc2F)C(=O)N(C)[C@@H](C)CNC(=O)C[C@H](Cc2ccc(Cl)cc2)N(C)C1=O [Compound 229, (2S,5S,8S,13S,16R)-1-(4-chloro-2-(4-(1-methyl-2-(pyrrolidin-1-ylmethyl)-1H-imidazol-5-yl)phenoxy)benzyl)-8-(4-chlorobenzyl)-16-(2-fluorobenzyl)-5-(methoxymethyl)-2,7,13,14-tetramethyl-1,4,7,11,14-pentaazacyclooctadecane-3,6,10,15,18-pentaone]
100.63	0.8	COC[C@@H]1NC(=O)[C@H](COC)N(Cc2ccc(Cl)cc2Oc2ccc(-c3cnc(CN(C)C)n3C)cc2)C(=O)C[C@@H](Cc2ccccc2)C(=O)N(C)[C@H]2CCCC[C@@H]2NC(=O)C[C@H](Cc2ccc(Cl)cc2)N(C)C1=O [Compound 234, (4S,7S,10S,14R,16aS,20aS)-14-benzyl-11-(4-chloro-2-(4-(2-((dimethylamino)methyl)-1-methyl-1H-imidazol-5-yl)phenoxy)benzyl)-4-(4-chlorobenzyl)-7,10-bis(methoxymethyl)-5,16-dimethylhexadecahydrobenzo[l][1,4,7,11,14]pentaazacyclooctadecine-2,6,9,12,15(3H)-pentaone]
102.97	1.4	COC[C@@H]1NC(=O)[C@H](CC(=O)OC(C)(C)C)N(Cc2ccc(Cl)cc2Oc2ccc(-c3cnc(CN(C)C)n3C)cc2)C(=O)C[C@@H](Cc2ccccc2)C(=O)N(C)[C@H]2CCCC[C@@H]2NC(=O)C[C@H](Cc2ccc(Cl)cc2)N(C)C1=O [Compound 237, tert-butyl 2-((4S,7S,10S,14R,16aS,20aS)-14-benzyl-11-(4-chloro-2-(4-(2-((dimethylamino)methyl)-1-methyl-1H-imidazol-5-yl)phenoxy)benzyl)-4-(4-chlorobenzyl)-7-(methoxymethyl)-5,16-dimethyl-2,6,9,12,15-pentaoxodocosahydrobenzo[l][1,4,7,11,14]pentaazacyclooctadecin-10-yl)acetate]
104.90	2.5	COC[C@@H]1NC(=O)[C@H](C)N(Cc2ccc(Cl)cc2Oc2ccc(-c3cnc(CN(C)C)n3C)cc2)C(=O)C[C@@H](Cc2cccc(OC(F)F)c2)C(=O)N(C)[C@@H](C)CNC(=O)C[C@H](Cc2ccc(Cl)cc2)N(C)C1=O [Compound 238, (2S,5S,8S,13S,16R)-1-(4-chloro-2-(4-(2-((dimethylamino)methyl)-1-methyl-1H-imidazol-5-yl)phenoxy)benzyl)-8-(4-chlorobenzyl)-16-(3-(difluoromethoxy)benzyl)-5-(methoxymethyl)-2,7,13,14-tetramethyl-1,4,7,11,14-pentaazacyclooctadecane-3,6,10,15,18-pentaone]
106.17	1.3	COCCN(C)C(=O)C[C@H]1C(=O)N[C@@H](COC)C(=O)N(C)[C@@H](Cc2ccc(Cl)cc2)CC(=O)N[C@H]2CCCC[C@@H]2N(C)C(=O)[C@H](Cc2ccccc2)CC(=O)N1Cc1ccc(Cl)cc1Oc1ccc(-c2cnc(CN(C)C)n2C)cc1 [Compound 239, 2-((4S,7S,10S,14R,16aS,20aS)-14-benzyl-11-(4-chloro-2-(4-(2-((dimethylamino)methyl)-1-methyl-1H-imidazol-5-yl)phenoxy)benzyl)-4-(4-chlorobenzyl)-7-(methoxymethyl)-5,16-dimethyl-2,6,9,12,15-pentaoxodocosahydrobenzo[l][1,4,7,11,14]pentaazacyclooctadecin-10-yl)-N-(2-methoxyethyl)-N-methylacetamide]
99.28	0.9	COC[C@@H]1NC(=O)[C@H](C)N(Cc2ccc(C)cc2Oc2ccc(-c3cnc(CN(C)C)n3C)cc2)C(=O)C[C@@H](Cc2ccccc2)C(=O)N(C)[C@@H](C)CNC(=O)C[C@H](Cc2ccc(Cl)cc2)N(C)C1=O [Compound 240, (2S,5S,8S,13S,16R)-16-benzyl-8-(4-chlorobenzyl)-1-(2-(4-(2-((dimethylamino)methyl)-1-methyl-1H-imidazol-5-yl)phenoxy)-4-methylbenzyl)-5-(methoxymethyl)-2,7,13,14-tetramethyl-1,4,7,11,14-pentaazacyclooctadecane-3,6,10,15,18-pentaone]
87.34	1.3	COC[C@@H]1NC(=O)[C@H](C)N(Cc2ccc(Cl)cc2Oc2ccc(-c3cnc(C(C)O)n3C)cc2)C(=O)C[C@@H](Cc2ccccc2)C(=O)N(C)[C@H]2CCCC[C@@H]2NC(=O)C[C@H](Cc2ccc(Cl)cc2)N(C)C1=O (stereo partly drawn) [Compound 242, (4S,7S,10S,14R,16aS,20aS)-14-benzyl-11-(4-chloro-2-(4-(2-(1-hydroxyethyl)-1-methyl-1H-imidazol-5-yl)phenoxy)benzyl)-4-(4-chlorobenzyl)-7-(methoxymethyl)-5,10,16-trimethylhexadecahydrobenzo[l][1,4,7,11,14]pentaazacyclooctadecine-2,6,9,12,15(3H)-pentaone]
